# In paper PMC10527105, “Chirality Matters: Fine-Tuning of Novel Monoamine Reuptake Inhibitors Selectivity through Manipulation of Stereochemistry” (Biomolecules, 2023):
# Like-named read-outs stand apart in the source and are kept apart here.
# Legend:
# human SERT = target: T1, human SERT (Homo sapiens, UniProt P31645); assay: Radioligand binding assay, [3H]imipramine, CHO cells (Eurofins Cerep); conditions: human SERT expressed in CHO cells; read-out: Ki, binding sites of the SERT (against [3H]imipramine)
# T1 construct: host or cells: CHO
# T1 sequence (P31645 whole entry): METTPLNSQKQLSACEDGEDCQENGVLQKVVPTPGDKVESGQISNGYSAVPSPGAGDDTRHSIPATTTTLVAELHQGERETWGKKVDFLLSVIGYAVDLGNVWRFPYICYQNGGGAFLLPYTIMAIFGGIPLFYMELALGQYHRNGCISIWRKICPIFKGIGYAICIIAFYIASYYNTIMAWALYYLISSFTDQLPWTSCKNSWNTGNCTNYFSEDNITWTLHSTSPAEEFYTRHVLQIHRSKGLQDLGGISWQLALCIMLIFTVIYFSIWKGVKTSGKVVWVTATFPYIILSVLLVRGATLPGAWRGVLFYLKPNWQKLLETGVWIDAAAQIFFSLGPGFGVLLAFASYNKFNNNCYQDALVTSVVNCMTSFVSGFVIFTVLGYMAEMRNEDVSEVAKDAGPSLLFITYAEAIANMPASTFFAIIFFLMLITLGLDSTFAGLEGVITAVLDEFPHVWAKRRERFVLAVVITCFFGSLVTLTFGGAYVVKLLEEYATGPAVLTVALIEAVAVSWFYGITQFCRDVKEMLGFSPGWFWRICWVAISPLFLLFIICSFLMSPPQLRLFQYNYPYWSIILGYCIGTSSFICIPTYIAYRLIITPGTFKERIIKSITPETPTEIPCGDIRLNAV
# Protocol: (§1) Binding experiments. Binding affinity to the human DAT, SERT, and NET stable proteins expressed in CHO cells was evaluated in in vitro radioligand binding assays. Non-specific binding was determined using [^3H]BTCP, [^3H]imipramine, and ^[3H] nisoxetine for hDAT, hSERT, and hNET, respectively. The IC50 values were calculated by non-linear regression analysis of the competition curves generated from the mean replicate values. The Ki values were calculated using the Cheng–Prusoff equation (Ki = IC50/(1 + […])). Binding assays were carried out by Eurofins (Cerep SA, Celle l’Evescault, France), Study No. 100053935. For an in-depth description, please refer to the report in the supporting information file.
# human DAT = target: T2, human DAT (Homo sapiens, UniProt Q01959); assay: Radioligand binding assay, [3H]BTCP, CHO cells (Eurofins Cerep)
# T2 construct: host or cells: CHO
# T2 sequence (Q01959 whole entry): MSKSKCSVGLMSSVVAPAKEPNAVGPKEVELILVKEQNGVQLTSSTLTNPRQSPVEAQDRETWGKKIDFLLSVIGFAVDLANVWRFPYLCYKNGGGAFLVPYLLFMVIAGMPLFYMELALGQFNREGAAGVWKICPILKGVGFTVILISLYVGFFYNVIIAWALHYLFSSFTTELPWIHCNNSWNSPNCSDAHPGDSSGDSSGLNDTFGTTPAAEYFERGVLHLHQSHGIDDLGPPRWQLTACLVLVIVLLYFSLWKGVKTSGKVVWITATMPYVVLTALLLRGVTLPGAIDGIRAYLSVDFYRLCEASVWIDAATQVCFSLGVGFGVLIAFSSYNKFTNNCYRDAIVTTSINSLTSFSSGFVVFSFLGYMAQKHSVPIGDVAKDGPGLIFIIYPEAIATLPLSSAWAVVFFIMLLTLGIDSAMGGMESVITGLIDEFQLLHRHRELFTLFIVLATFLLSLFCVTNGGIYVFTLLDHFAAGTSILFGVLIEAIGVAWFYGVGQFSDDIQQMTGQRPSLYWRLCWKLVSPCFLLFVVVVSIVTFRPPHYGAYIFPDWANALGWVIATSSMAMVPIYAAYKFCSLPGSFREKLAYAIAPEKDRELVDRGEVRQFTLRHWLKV
# Protocol: as §1
# human NET = target: T3, human NET (Homo sapiens, UniProt P23975); assay: Radioligand binding assay, [3H]nisoxetine, CHO cells (Eurofins Cerep); conditions: human NET expressed in CHO cells; read-out: Ki, binding sites of the NET (against [3H]nisoxetine)
# T3 construct: host or cells: CHO
# T3 sequence (P23975 whole entry): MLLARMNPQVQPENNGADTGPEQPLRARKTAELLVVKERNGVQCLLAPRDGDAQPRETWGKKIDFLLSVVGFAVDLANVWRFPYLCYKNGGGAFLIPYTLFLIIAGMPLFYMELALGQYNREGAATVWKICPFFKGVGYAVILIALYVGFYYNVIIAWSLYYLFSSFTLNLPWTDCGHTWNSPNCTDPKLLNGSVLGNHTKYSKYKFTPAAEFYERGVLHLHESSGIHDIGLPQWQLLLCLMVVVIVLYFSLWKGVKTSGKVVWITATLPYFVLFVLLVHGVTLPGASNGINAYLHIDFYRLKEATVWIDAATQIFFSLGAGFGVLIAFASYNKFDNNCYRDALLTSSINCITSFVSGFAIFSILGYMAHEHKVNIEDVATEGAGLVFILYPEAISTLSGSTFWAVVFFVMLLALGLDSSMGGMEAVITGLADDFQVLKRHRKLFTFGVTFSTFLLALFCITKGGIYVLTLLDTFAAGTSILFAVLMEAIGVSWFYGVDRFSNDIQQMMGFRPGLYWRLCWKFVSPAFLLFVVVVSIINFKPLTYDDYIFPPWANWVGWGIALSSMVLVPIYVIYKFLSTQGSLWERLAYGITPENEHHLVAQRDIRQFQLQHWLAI
# Protocol: as §1
# rat cortical neurons = assay: Neurite outgrowth assay (Cyprotex); assay type: cell-based; conditions: for IC50: Rattus norvegicus, Cortical neurone, 72 h; for window between neurite outgrowth effect concentration and active concentration: effect at 100 µM compared to the active concentration; for effect on valid neuron count, mean neurite average length and neurite total length per neuron: only at 100 µM (top concentration tested); for effect on neurite outgrowth in relation to effect on cell viability: rat cortical neurons; for cell-toxic effects: up to a concentration of 50 µM
# Protocol: Neurite outgrowth assay. […] were carried out by Cyprotex (an Evotec Company, Toulouse, France), Study No. CYP2052-R1. For an in-depth description, please refer to the report in the supporting information files. Cryo-preserved rat cortical neurons (QBM Cell Science, R-Cx-500) were quickly thawed and slowly diluted with neurobasal medium supplemented with L-glutamine (Invitrogen, Cat. No. 25030-081), penicillin-streptomycin (Invitrogen, Cat. No. 15140-122), and B27 (NB/B27 medium, Invitrogen, Cat. No. 17504-044). After a gentle centrifugation step, the neurons were resuspended in NB/B27 medium at a density of 4.0 × 10^6 cells/mL. One hour prior to treatment, the neurons were plated in 384-well plates (Corning 354663) pre-coated with a laminin solution (Sigma L2020 1 mg/mL) at a density of 10,000 cells per well. After treatment with test articles and control compounds, the neurons were maintained in a humidified environment at 37 °C with 5% CO2 for 72 h. At the end of the treatment period, the neurons were fixed for 1 h with a 3.7% formaldehyde solution (Acros Organics, 41073-0010). The neurons were washed with phosphate buffered saline (PBS) (SH30264.02) and permeabilized for 10 min with a 0.5% solution of Triton X-100 (Millipore Sigma, X100). After another wash step, the neurons were stained for one hour with Hoechst 33342 (ThermoFisher Scientific, H3570) and the anti-beta III tubulin antibody, Alexa Fluor® 488 conjugate (Millipore Sigma AB15708A4), diluted in a blocking buffer solution (Thermo Scientific, 37525). Upon completion of the staining step, the neurons were washed again, and the plates were sealed in preparation for the imaging process. The neurons were evaluated for neurite outgrowth and cell health using the high-content imaging platform, ArrayScan VTi (Thermo Scientific ArrayScan VTi), with an optimized neuronal profiling bio-application.
# This assay assessed cell health and neurite outgrowth utilizing a neuronal profiling bio-application applied to images obtained on an ArrayScan VTi. Valid neuron count, mean neurite average length, and neurite total length per neuron were determined and reported. Raw data were normalized to the vehicle control and reported as a normalized% response. Dose response graphs were generated with GraphPad Prism using a sigmoidal dose-response (variable slope) algorithm.
# [1] = read-out: Mean Neurite Avg. Length IC50, rat cortical neurons, 72 h
# [2] = read-out: Neurite Total Length per Neuron IC50, rat cortical neurons, 72 h
# [3] = read-out: Valid Neuron Count IC50, rat cortical neurons, 72 h
SMILES,Ki (human SERT),Ki (human DAT),Ki (human NET),IC50 (rat cortical neurons; [1]),IC50 (rat cortical neurons; [2]),IC50 (rat cortical neurons; [3]),window between neurite outgrowth effect concentration and active concentration (rat cortical neurons),"effect on valid neuron count, mean neurite average length and neurite total length per neuron (rat cortical neurons)",effect on neurite outgrowth in relation to effect on cell viability (rat cortical neurons),cell-toxic effects (rat cortical neurons)
"[O-][S@+](Cc1cccs1)[C@H](c1ccccc1)c1cccc(Br)c1 [Compound 8h, (R,R)-2-((((3-bromophenyl)(phenyl)methyl)sulfinyl)methyl)thiophene]",> 10 µM,0.035 µM,> 10 µM,75.2 µM,72.2 µM,94.6 µM,more than 100 fold,significant decreases,not independent of their effect on cell viability,absence of cell-toxic effects
"[O-][S@@+](Cc1cccs1)[C@@H](c1ccccc1)c1cccc(Br)c1 [Compound 7h, (S,S)-2-((((3-bromophenyl)(phenyl)methyl)sulfinyl)methyl)thiophene]",> 10 µM,0.013 µM,> 10 µM,65.8 µM,59.8 µM,92.2 µM,more than 100 fold,significant decreases,not independent of their effect on cell viability,absence of cell-toxic effects
